One experiment concerns the target human mPGES-1 (Homo sapiens (Human), UniProt O14684). Kind of experiment: mPGES-1 inhibitory activity test. It is filed as biochemical. Particulars: for inhibition at 0.01 µM: 10 nM test compound; for inhibition at 0.1 µM: 100 nM test compound. In a few lines: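 PGE2 formation was quantified by HTRF and reported as percent inhibition at 10 and 100 nM compound or as IC50. The 60-second reaction at 4° C used 1 μM PGH2, after a 20-minute 4° C preincubation of compound (1% DMSO final) with glutathione-supplemented (2.5 mM, pH 7.4) microsomes. The microsomes were from transiently transfected CHO-K1 cells expressing human mPGES-1.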

Another experiment concerns human A549 cells. Put plainly: Inhibition test of PGE2 production using human A549 cells. The format is cell-based. The conditions noted are these: IL-1β stimulated A549 cells, 24 h, PGE2 by HTRF, read-out: A549 cell inhibition of PGE2 production IC50. In a few lines: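 PGE2 (HTRF) and PGF2a (EIA) were quantified in medium after 24 h, 37°C IL-1β stimulation (5 ng/well) of human A549 cells that had received test compound 60 min beforehand (0.1% DMSO, 3% FBS RPMI). IC50 relative to the window between IL-1β-stimulated and unstimulated controls.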
On the technique in general: In TR-FRET formats the signal depends on donor and acceptor labels being close together.

As usually defined, the inhibition is how much of the control response was suppressed. By IC50 is commonly meant the concentration that inhibits the measured activity by half.

Each structure is given as a SMILES string.

Chain of human mPGES-1 (O14684 whole entry): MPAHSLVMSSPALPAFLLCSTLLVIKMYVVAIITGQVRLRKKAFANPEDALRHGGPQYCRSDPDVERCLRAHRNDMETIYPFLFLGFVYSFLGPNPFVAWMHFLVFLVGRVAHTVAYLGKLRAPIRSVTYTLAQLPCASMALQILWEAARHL

`CC(C)(C)CC(=O)NCc1ccc(Cl)c(C(=O)Nc2cccc3c2cnn3-c2cccc(OC(F)(F)F)c2)c1` [Example 121, 2-Chloro-5-{[(3,3-dimethylbutanoyl)amino]methyl}-N-{1-[3-(trifluoromethoxy)phenyl]-1H-indazol-4-yl}benzamide] registered an inhibition at 0.01 µM against human mPGES-1 of 48%. The 50% inhibitory concentration (IC50) with human A549 cells was 10 nM.

As to `O=C(Nc1cccc2c1cnn2-c1cccc(OC(F)(F)F)c1)c1cc(CNC(=O)C2CCCC2)ccc1Cl` [Example 122, 2-Chloro-5-{[(cyclopentylcarbonyl)amino]methyl}-N-{1-[3-(trifluoromethoxy)phenyl]-1H-indazol-4-yl}benzamide], the inhibition at 0.01 µM against human mPGES-1 is 100%. In addition, in the experiment on human A549 cells, the IC50 is 2.9 nM.

In the case of `O=C(Nc1cccc2c1cnn2-c1cccc(OC(F)(F)F)c1)c1cc(CNC(=O)C2(C(F)(F)F)CC2)ccc1Cl` [Example 123, 2-Chloro-N-{1-[3-(trifluoromethoxy)phenyl]-1H-indazol-4-yl}-5-[({[1-(trifluoromethyl)cyclopropyl]carbonyl}amino)methyl]benzamide], at 0.01 µM the inhibition against human mPGES-1 was 98%. The IC50 with human A549 cells came out at 5.1 nM.

Take `O=C(Nc1cccc2c1cnn2-c1cccc(OC(F)(F)F)c1)c1cc(CNS(=O)(=O)C2CC2)ccc1Cl` [Example 126, 2-Chloro-5-{[(cyclopropylsulfonyl)amino]methyl}-N-{1-[3-(trifluoromethoxy)phenyl]-1H-indazol-4-yl}benzamide]: at human mPGES-1, 0.01 µM produced 100% inhibition. Also, the IC50 with human A549 cells amounted to 9.8 nM.

On human mPGES-1, `Cc1ccc(-n2ncc3c(NC(=O)c4cc(CNC(=O)CC(C)(C)C)ccc4Cl)cccc32)cc1Cl` [Example 127, 2-Chloro-N-[1-(3-chloro-4-methylphenyl)-1H-indazol-4-yl]-5-{[(3,3-dimethylbutanoyl)amino]methyl}benzamide] showed an inhibition at 0.01 µM of 64%. In addition, the IC50 in the experiment on human A549 cells was 4.7 nM.

In turn, `Cc1ccc(-n2ncc3c(NC(=O)c4cc(CNC(=O)C5(C(F)(F)F)CC5)ccc4Cl)cccc32)cc1Cl` [Example 129, 2-Chloro-N-[1-(3-chloro-4-methylphenyl)-1H-indazol-4-yl]-5-[({[1-(trifluoromethyl)cyclopropyl]carbonyl}amino)methyl]benzamide] had an inhibition at 0.01 µM at human mPGES-1 of 67%. In addition, the IC50 in the experiment with human A549 cells amounted to 1.2 nM.

`Cc1ccc(-n2ncc3c(NC(=O)c4cc(CNS(=O)(=O)C5CC5)ccc4Cl)cccc32)cc1Cl` [Example 132, 2-Chloro-N-[1-(3-chloro-4-methylphenyl)-1H-indazol-4-yl]-5-{[(cyclopropylsulfonyl)amino]methyl}benzamide] gave an inhibition at 0.01 µM at human mPGES-1 of 86%. Further, the IC50 in the experiment on human A549 cells is 1.5 nM.

On human mPGES-1, `CC(C)(C)CC(=O)NCc1ccc(Cl)c(C(=O)Nc2cccc3c2cnn3-c2cccc(OC(F)F)c2)c1` [Example 138, 2-Chloro-N-{1-[3-(difluoromethoxy)phenyl]-1H-indazol-4-yl}-5-{[(3,3-dimethylbutanoyl)amino]methyl}benzamide] showed an inhibition at 0.01 µM of 61% and an inhibition at 0.1 µM of 100%. In the experiment on human A549 cells, the IC50 was 6 nM.

With `O=C(Nc1cccc2c1cnn2-c1cccc(OC(F)F)c1)c1cc(CNC(=O)C2(O)CC2)ccc1Cl` [Example 141, 2-Chloro-N-{1-[3-(difluoromethoxy)phenyl]-1H-indazol-4-yl}-5-({[(1-hydroxycyclopropyl)carbonyl]amino}methyl)benzamide], on human mPGES-1, the inhibition at 0.01 µM worked out at 54% and the inhibition at 0.1 µM was determined as 100%. Besides, in the experiment on human A549 cells, the IC50 was 59.4 nM.

On human mPGES-1, `CC(C)(CO)C(=O)NCc1ccc(Cl)c(C(=O)Nc2cccc3c2cnn3-c2cccc(OC(F)F)c2)c1` [Example 143, 2-Chloro-N-{1-[3-(difluoromethoxy)phenyl]-1H-indazol-4-yl}-5-{[(3-hydroxy-2,2-dimethylpropanoyl)amino]methyl}benzamide] had an inhibition at 0.01 µM of 92% and an inhibition at 0.1 µM of 100%. In the experiment on human A549 cells, the 50% inhibitory concentration (IC50) was 17.4 nM.

Regarding `O=C(Nc1cccc2c1cnn2-c1cccc(OC(F)F)c1)c1cc(CNS(=O)(=O)C2CC2)ccc1Cl` [Example 144, 2-Chloro-5-{[(cyclopropylsulfonyl)amino]methyl}-N-{1-[3-(difluoromethoxy)phenyl]-1H-indazol-4-yl}benzamide], at human mPGES-1, 0.01 µM produced 73% inhibition and the inhibition at 0.1 µM turned out to be 100%. The concentration for half-maximal inhibition (IC50) in the experiment with human A549 cells came out at 1.8 nM.

The compound `CC(C)(C)CC(=O)NCc1ccc(Cl)c(C(=O)Nc2cccc3c2cnn3-c2ccc(Cl)cc2)c1` [Example 145, 2-Chloro-N-[1-(4-chlorophenyl)-1H-indazol-4-yl]-5-([(3,3-dimethylbutanoyl)amino]methyl)benzamide] displayed an inhibition at 0.01 µM on human mPGES-1 of 92%. In addition, the IC50 with human A549 cells came out at 6.3 nM.

`O=C(Nc1cccc2c1cnn2-c1ccc(Cl)cc1)c1cc(CNC(=O)C2(C(F)(F)F)CC2)ccc1Cl` [Example 147, 2-Chloro-N-[1-(4-chlorophenyl)-1H-indazol-4-yl]-5-[({[1-(trifluoromethyl)cyclopropyl]carbonyl}amino)methyl]benzamide]: 0.01 µM produced 85% inhibition against human mPGES-1. Further, in the experiment on human A549 cells, the IC50 is 0.9 nM.

On human mPGES-1, `COCC(=O)NCc1ccc(Cl)c(C(=O)Nc2cccc3c2cnn3-c2ccc(Cl)cc2)c1` [Example 148, 2-Chloro-N-[1-(4-chlorophenyl)-1H-indazol-4-yl]-5-([(methoxyacetyl)amino]methyl)benzamide] yielded an inhibition at 0.01 µM of 70% and an inhibition at 0.1 µM of 100%. The half-maximal inhibitory concentration (IC50) in the experiment with human A549 cells was determined as 4.2 nM.

For the compound `CC(C)(CO)C(=O)NCc1ccc(Cl)c(C(=O)Nc2cccc3c2cnn3-c2ccc(Cl)cc2)c1` [Example 149, 2-Chloro-N-[1-(4-chlorophenyl)-1H-indazol-4-yl]-5-{[(3-hydroxy-2,2-dimethylpropanoyl)amino]methyl}benzamide], at human mPGES-1, the inhibition at 0.01 µM was found to be 94%. Also, in the experiment with human A549 cells, the IC50 was 3.2 nM.

With `O=C(Nc1cccc2c1cnn2-c1ccc(Cl)cc1)c1cc(CNS(=O)(=O)C2CC2)ccc1Cl` [Example 150, 2-Chloro-N-[1-(4-chlorophenyl)-1H-indazol-4-yl]-5-([(cyclopropylsulfonyl)amino]methyl)benzamide], the inhibition at 0.01 µM at human mPGES-1 came out at 72%. In the experiment on human A549 cells, the IC50 was 5.9 nM.

As to `CC(C)(C)CC(=O)NCc1ccc(Cl)c(C(=O)Nc2cccc3c2cnn3-c2ccc(F)cc2)c1` [Example 151, 2-Chloro-5-{[(3,3-dimethylbutanoyl)amino]methyl}-N-[1-(4-fluorophenyl)-1H-indazol-4-yl]benzamide], the inhibition at 0.01 µM against human mPGES-1 is 100%. In addition, in the experiment with human A549 cells, the IC50 was found to be 14.3 nM.

`O=C(Nc1cccc2c1cnn2-c1ccc(F)cc1)c1cc(CNC(=O)C2CCCC2)ccc1Cl` [Example 152, 2-Chloro-5-{[(cyclopentylcarbonyl)amino]methyl}-N-[1-(4-fluorophenyl)-1H-indazol-4-yl]benzamide] registered an inhibition at 0.01 µM against human mPGES-1 of 58%. Besides, in the experiment with human A549 cells, the IC50 came out at 7.6 nM.

In turn, `O=C(Nc1cccc2c1cnn2-c1ccc(F)cc1)c1cc(CNC(=O)C2(C(F)(F)F)CC2)ccc1Cl` [Example 153, 2-Chloro-N-[1-(4-fluorophenyl)-1H-indazol-4-yl]-5-[({[1-(trifluoromethyl)cyclopropyl]carbonyl}amino)methyl]benzamide] returned an inhibition at 0.01 µM at human mPGES-1 of 100%. Further, in the experiment on human A549 cells, the IC50 is 1 nM.

At human mPGES-1, `O=C(Nc1cccc2c1cnn2-c1ccc(F)cc1)c1cc(CNC(=O)C2(O)CC2)ccc1Cl` [Example 154, 2-Chloro-N-[1-(4-fluorophenyl)-1H-indazol-4-yl]-5-({[(1-hydroxycyclopropyl)carbonyl]amino}methyl)benzamide] returned an inhibition at 0.01 µM of 58% and an inhibition at 0.1 µM of 89%. Moreover, in the experiment on human A549 cells, the IC50 was found to be 17.6 nM.

For the compound `COCC(=O)NCc1ccc(Cl)c(C(=O)Nc2cccc3c2cnn3-c2ccc(F)cc2)c1` [Example 155, 2-Chloro-N-[1-(4-fluorophenyl)-1H-indazol-4-yl]-5-([(methoxyacetyl)amino]methyl)benzamide], the inhibition at 0.01 µM on human mPGES-1 turned out to be 100%. Also, the IC50 in the experiment on human A549 cells was 5.9 nM.

`CC(C)(CO)C(=O)NCc1ccc(Cl)c(C(=O)Nc2cccc3c2cnn3-c2ccc(F)cc2)c1` [Example 156, 2-Chloro-N-[1-(4-fluorophenyl)-1H-indazol-4-yl]-5-([(3-hydroxy-2,2-dimethylpropanoyl)amino]methyl)benzamide]: at human mPGES-1, testing at 0.01 µM gave an inhibition of 63% and 0.1 µM produced 86% inhibition. Further, the IC50 in the experiment on human A549 cells turned out to be 7.1 nM.

Compound `O=C(Nc1cccc2c1cnn2-c1ccc(F)cc1)c1cc(CNS(=O)(=O)C2CC2)ccc1Cl` [Example 157, 2-Chloro-5-{[(cyclopropylsulfonyl)amino]methyl}-N-[1-(4-fluorophenyl)-1H-indazol-4-yl]benzamide] came in with an inhibition at 0.01 µM against human mPGES-1 of 100%. Besides, the IC50 with human A549 cells was 14.6 nM.

Consider `CC(C)(C)C(=O)NCc1ccc(Cl)c(C(=O)Nc2cccc3c2cnn3-c2ccc(F)cc2)c1Cl` [Example 158, 2,6-Dichloro-3-{[(2,2-dimethylpropanoyl)amino]methyl}-N-[1-(4-fluorophenyl)-1H-indazol-4-yl]benzamide], for which, at human mPGES-1, the inhibition at 0.01 µM came out at 49% and the inhibition at 0.1 µM amounted to 100%. Also, the IC50 in the experiment with human A549 cells was 1.6 nM.

At human mPGES-1, `COc1cc(-n2ncc3c(NC(=O)c4cc(CNC(=O)CC(C)(C)C)ccc4Cl)cccc32)ccn1` [Example 159, 2-Chloro-5-{[(3,3-dimethylbutanoyl)amino]methyl}-N-[1-(2-methoxypyridin-4-yl)-1H-indazol-4-yl]benzamide] had an inhibition at 0.01 µM of 55% and an inhibition at 0.1 µM of 100%. Moreover, the IC50 in the experiment on human A549 cells was 9.1 nM.
